Results as given in paper PMC6158167 (Nature Communications, 2018).

What was measured:
ShHTL4 = experiment: SL hydrolysis assay (HPLC), ShHTL4; format: biochemical, Striga hermonthica; details: 3.2 μM SL, 1.6 μM enzyme, 30 min, 30 °C
Protocol: (§1) Next, 50 μL of 1 M HCl was added to each reaction solution, and the reaction solutions were extracted 3 times with 300 μL of ethyl acetate. The ethyl acetate layers were combined and dried in vacuo and were then dissolved in 50 μL of methanol. For each layer, 5 μL was applied to the reverse-phase HPLC (Shimadzu LC-2030C). The analytical column was a CAPCELL CORE C18 (Φ 2.1 × 100 mm, Shiseido). The analytes were eluted under gradient conditions at a flow rate of 0.20 mL min^−1 with a linear ramp of methanol to 90% methanol at 19 min, which was maintained for 6 min before resetting to the original conditions. […] The percentage of hydrolyzed SL was calculated and used for statistical analyses. One-tailed unpaired Student’s t-tests were used for comparison between buffer samples and enzyme samples.

AtHTL = target: T1, AtHTL (Arabidopsis thaliana, UniProt Q9SZU7); details: cited from earlier work
T1 sequence (Q9SZU7 1-270): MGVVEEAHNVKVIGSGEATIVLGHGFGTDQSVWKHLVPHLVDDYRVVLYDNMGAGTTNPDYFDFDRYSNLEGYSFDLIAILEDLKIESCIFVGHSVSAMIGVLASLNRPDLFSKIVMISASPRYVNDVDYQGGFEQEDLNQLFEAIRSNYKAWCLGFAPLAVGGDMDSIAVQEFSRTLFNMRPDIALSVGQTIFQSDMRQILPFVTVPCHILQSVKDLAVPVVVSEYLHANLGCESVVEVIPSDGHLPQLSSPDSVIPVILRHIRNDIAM

ShMAX2 and ShHTL4 = experiment: In vitro pull-down ShHTL4-ShMAX2; format: binding, Striga hermonthica; details: 50 μM ligand, CBB staining
Protocol: (§2) Ni-NTA pull-down assays were performed with purified ShMAX2 or AtMAX2 as the bait and […]14, or GST-AtD14 as the prey. The molecular weight of the HTL/D14 proteins is nearly the same as that of ASK1; therefore, the HTL/D14 proteins were fused to GST, increasing their molecular weight for detection on SDS-PAGE gels. […] The protein complexes were then eluted with 100 μL of elution buffer containing 50 mM Bis-Tris, pH 6.8, 500 mM NaCl, and 500 mM imidazole and subjected to SDS-PAGE analysis.

ShHTL3 [1] = experiment: SL hydrolysis assay (HPLC), ShHTL3; format: biochemical, Striga hermonthica; details: 3.2 μM SL, 1.6 μM enzyme, 30 min, 30 °C
Protocol: as §1

ShD14 [2] = experiment: SL hydrolysis assay (HPLC), ShD14; format: biochemical, Striga hermonthica; details: 3.2 μM SL, 1.6 μM enzyme, 30 min, 30 °C
Protocol: as §1

[3] = test system: ShHTL7–ShMAX2 interaction; experiment: Y2H assay ShHTL7-ShMAX2; format: cell-based, Striga hermonthica; details: 5 μM ligand
Description: (§3) Full-length sequences of ShD14, ShHTL1, ShHTL3, ShHTL4, ShHTL7, and AtHTL were cloned into the pGBKT7 vector as bait (Clontech), and the coding regions of ShMAX2 and AtMAX2 were cloned into the pGADT7 vector as prey (Clontech). MAX2 was supposed to be unstable without ASK1. Therefore, AtASK1 was cloned into the N terminus of ShMAX2 and AtMAX2 with a 16-residue linker for co-expression. The bait and prey plasmids were co-transformed into the yeast (Saccharomyces cerevisiae) strain Y2HGold (Clontech) by the lithium acetate-mediated method. The presence of both plasmids was confirmed by growth on SD/-Leu/-Trp (-LT) plates. […] The plates were incubated for 5 days at 30 °C.

ShHTL7 [4] = target: T2, ShHTL7 (Striga hermonthica, UniProt A0A0M3PNA2); experiment: YLG competition assay, WT ShHTL7; format: biochemical
T2 sequence (A0A0M3PNA2 1-271): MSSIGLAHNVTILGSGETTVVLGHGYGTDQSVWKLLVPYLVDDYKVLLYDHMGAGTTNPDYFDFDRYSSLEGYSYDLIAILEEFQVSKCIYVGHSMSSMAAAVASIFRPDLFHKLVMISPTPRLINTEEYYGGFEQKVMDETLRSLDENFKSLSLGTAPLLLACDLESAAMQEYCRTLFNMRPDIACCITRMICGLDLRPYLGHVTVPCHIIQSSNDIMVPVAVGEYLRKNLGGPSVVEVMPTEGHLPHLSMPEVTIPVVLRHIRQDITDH
Protocol: (§4) The YLG assays were conducted as previously described[28] with minor modifications. Ten microliters of 0.1 mg mL^−1 ShHTL7 protein in a reaction buffer containing 20 mM HEPES, pH 7.0, 150 mM NaCl and 80 μL of reaction buffer were mixed in a 96-well black plate (Grenier). Ten microliters of 10 μM YLG was added to the solution and incubated at 25 °C for 1 h prior to measurement. The fluorescence intensity was measured using a SpectraMax® iD5 Multi-Mode Microplate Reader (Molecular Devices). Measurements were performed at room temperature under a 480 nm excitation wavelength, a 530 nm emission wavelength, a manual PMT of 500, and a read height of 1.00 mm. The fluorescence can be detected if YLG is hydrolyzed. The RFU (relative fluorescence unit) was calculated by subtracting the fluorescence of the buffer (without protein) and then dividing by the fluorescence of wild-type ShHTL7. […]
(§5) in a previous study6, the enzymes were incubated with YLG at the indicated concentrations. The RFU (relative fluorescence units) was calculated by dividing the fluorescence of hydrolysis at 10 μM YLG by wild type (WT) ShHTL7 after subtracting the fluorescence of the buffer. The Km values were calculated from a Michaelis-Menten plot using GraphPad Prism software and are shown in the plots. […]
(§6) The inhibition constant Ki was calculated according to the Cheng-Prusoff equation7. […]

AtD14 = target: AtD14; set-up: method as in earlier work; details: read-out: Kd of rac-GR24 binding to AtD14; quoted in reviewer comment; cited from earlier work
ShHTL1 [5] = target: T3, ShHTL1 (Striga hermonthica, UniProt A0A0M4AV81); experiment: ITC binding to ShHTL1; details: 750 μM ShHTL1 into 100 μM rac-GR24, 20 °C
T3 sequence (A0A0M4AV81 entry or part of it): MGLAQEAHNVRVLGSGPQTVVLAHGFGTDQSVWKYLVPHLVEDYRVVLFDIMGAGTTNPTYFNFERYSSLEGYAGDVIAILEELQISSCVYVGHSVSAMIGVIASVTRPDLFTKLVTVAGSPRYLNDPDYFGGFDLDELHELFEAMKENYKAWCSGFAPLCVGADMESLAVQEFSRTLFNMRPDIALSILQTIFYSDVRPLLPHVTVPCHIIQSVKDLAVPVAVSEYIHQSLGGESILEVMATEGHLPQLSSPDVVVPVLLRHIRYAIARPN
Protocol: The binding assays were performed using a MicroCal iTC200 isothermal titration calorimeter (GE Healthcare). Prior to the ITC experiments, concentrated ShD14, ShHTL1, ShHTL4, and ShHTL7 were exchanged into a buffer consisting of 20 mM HEPES (pH 8.0) and 150 mM NaCl to remove dithiothreitol and were then adjusted to a final concentration of 150 μM. The sample cell was filled with protein solution (204 μL). Nineteen consecutive 2.0-μL aliquots of 3 mM KAR1 (3-methyl-2H-furo [2,3-c] pyran-2-one) were injected into a prepared protein solution at 150 s intervals at 20 °C. The first injection volume was 0.4 μL, and the observed thermal peak was excluded from the data analysis. A negative control was obtained by titrating 3 mM KAR1 into the buffer (20 mM HEPES, pH 8.0, 150 mM NaCl) in the same manner. Data fitting was performed in “one set of sites” mode, and KD values were calculated using Origin software provided by MicroCal.
Binding analyses of ShHTLs and ShD14 with KAR1. The ITC assays were performed by adding 3 mM KAR1 to 150 μM ShHTL1 (a), ShHTL4 (b), ShHTL7
(c), ShD14 (d) and AtHTL (e).
ShHTL1 and AtHTL were fitted using the MicroCal origin software with the “one binding site” model.

ShHTL7 T190F/C194F [6] = target: ShHTL7 T190F/C194F (Striga hermonthica, UniProt A0A0M3PNA2, C194F/T190F); experiment: YLG competition assay, ShHTL7 double mutation; format: biochemical
Chain of ShHTL7 T190F/C194F (Striga hermonthica, UniProt A0A0M3PNA2, C194F/T190F) (A0A0M3PNA2 whole entry T190F/C194F): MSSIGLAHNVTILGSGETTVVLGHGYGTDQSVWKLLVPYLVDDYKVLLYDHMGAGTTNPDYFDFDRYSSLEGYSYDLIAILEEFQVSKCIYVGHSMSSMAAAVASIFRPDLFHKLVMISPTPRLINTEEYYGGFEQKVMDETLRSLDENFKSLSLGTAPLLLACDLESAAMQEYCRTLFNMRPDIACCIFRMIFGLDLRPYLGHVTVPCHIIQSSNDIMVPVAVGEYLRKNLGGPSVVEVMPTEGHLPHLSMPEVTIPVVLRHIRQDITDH
Protocol: as §4, with “ShHTL7. The experiment was repeated 6 times independently.” for “ShHTL7.”
as §5, with “plots. (d) Competition assays with synthetic SL rac-GR24. WT and ShHTL7 protein” for “plots.”
(§7) The inhibition constant Ki was calculated according to the Cheng-Prusoff equation7. Kirac-GR24 values were 0.07 ± 0.01 μM for WT; 0.15 ± 0.04 μM for the T190F/C194F double mutation; and 11.85 ± 3.43 μM for the L124F/T190F/C194F triple mutation as shown in the plots. The experiment was repeated 4 times independently, and each replicate is represented by a black dot.
(§8) The mean values are fitted, and the error bars represent the standard deviation (S.D.) of three replicates (means ± S.D., n=3).

ShHTL7 T190F/C194F [7] = experiment: YLG competition assay, ShHTL7 double mutation; format: biochemical, Striga hermonthica; details: from Ki in YLG competition assays
Protocol: as §4, with “ShHTL7. The experiment was repeated 6 times independently.” for “ShHTL7.”
as §5, with “plots. (d) Competition assays with synthetic SL rac-GR24. WT and ShHTL7 protein” for “plots.”
as §7, §8

ShD14–ShMAX2 interaction = experiment: Y2H assay ShD14-ShMAX2; format: cell-based, Striga hermonthica; details: 5 μM ligand
Description: as §3

ShHTL7 [8] = target: T2, ShHTL7; experiment: SL hydrolysis assay (HPLC), ShHTL7; format: biochemical; details: 3.2 μM SL, 1.6 μM enzyme, 30 min, 30 °C
Protocol: as §1

ShHTL1 [9] = target: T3, ShHTL1; experiment: SL hydrolysis assay (HPLC), ShHTL1; format: biochemical; details: 3.2 μM SL, 1.6 μM enzyme, 30 min, 30 °C
Protocol: as §1

ShMAX2 and ShD14 = experiment: In vitro pull-down ShD14-ShMAX2; format: binding, Striga hermonthica; details: 50 μM ligand, CBB staining
Protocol: as §2

ShHTL3 [10] = test system: ShHTL3; set-up: method as in PMID 27507097; details: cited from earlier work
ShHTL7 L124F/T190F/C194F = ShHTL7 L124F/T190F/C194F (Striga hermonthica, UniProt A0A0M3PNA2, C194F/L124F/T190F); experiment: YLG competition assay, ShHTL7 triple mutation; format: biochemical
Chain of ShHTL7 L124F/T190F/C194F (A0A0M3PNA2 whole entry L124F/T190F/C194F): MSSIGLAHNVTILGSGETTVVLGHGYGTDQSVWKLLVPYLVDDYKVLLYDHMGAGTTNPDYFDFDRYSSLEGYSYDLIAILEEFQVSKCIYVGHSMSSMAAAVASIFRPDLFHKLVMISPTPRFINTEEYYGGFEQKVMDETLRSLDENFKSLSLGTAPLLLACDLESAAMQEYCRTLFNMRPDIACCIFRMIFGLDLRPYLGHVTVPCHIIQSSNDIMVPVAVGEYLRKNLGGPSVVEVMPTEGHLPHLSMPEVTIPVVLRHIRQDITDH
Protocol: as §4, §5, §6

[11] = target: PYR1 in complex with co-receptor TYPE 2C PROTEIN PHOSPHATASE (PP2C); set-up: method as in PMID 21847091; details: cited from earlier work
[…] 1 (PYR1) = target: […] 1 (PYR1); set-up: method as in PMID 21847091; details: read-out: KD of PYR1 for ABA; cited from earlier work
ShD14 [12] = test system: ShD14; set-up: method as in PMID 26293962; details: cited from earlier work
ShD14 [13] = experiment: YLG hydrolysis assay, ShD14; format: biochemical, Striga hermonthica; details: fluorescence, repeated YLG hydrolysis assays
Protocol: The YLG assays were conducted as previously described[28] with minor modifications. […] The fluorescence intensity was measured using a SpectraMax® iD5 Multi-Mode Microplate Reader (Molecular Devices). Measurements were performed at room temperature under a 480 nm excitation wavelength, a 530 nm emission wavelength, a manual PMT of 500, and a read height of 1.00 mm. The fluorescence can be detected if YLG is hydrolyzed. […] The experiment was repeated 6 times independently. page 4: Supplementary Figure 4. YLG hydrolysis assays of OsD14 and ShD14. RFU (relative fluorescence units) was calculated by dividing the fluorescence of OsD14. The fluorescence can be detected under a 490 nm excitation wavelength and a 520 nm emission wavelength if YLG is hydrolyzed. The experiments were repeated 4 (OsD14) or 6 times independently. Columns represent the mean RFU, and the error bars represent the standard deviation (S.D.). Each replicate is indicated by a black circle.

SMILES: CC1=CC(O/C=C2/C(=O)OC3c4ccccc4CC23)OC1=O (racemic) [rac-GR24]
- hydrolytic activity of ShHTL4 toward SL (ShHTL4): able to hydrolyze
- hydrolysis of rac-GR24 by AtHTL (AtHTL): able to hydrolyze rac-GR24 to some extent
- ligand-dependent ShMAX2-ShHTL4 interaction (ShMAX2 and ShHTL4): able to interact with ShHTL4 of the divergent clade in the presence of rac-GR24
- hydrolytic activity of ShHTL3 toward SL (ShHTL3 [1]): no hydrolytic activity
- hydrolytic activity of ShD14 toward SL (ShD14 [2]): able to hydrolyze
- ligand-induced ShHTL7-ShMAX2 interaction [3]: triggered the interaction of ShHTL7 with ShMAX2
- IC50 (ShHTL7 [4]): 170 ± 10 nM
- Ki (ShHTL7 [4]): 70 ± 10 nM
- Kd (AtD14): 300 nM
- binding of rac-GR24 to ShHTL1 (ShHTL1 [5]): no detectable binding
- IC50 (ShHTL7 T190F/C194F [6]): 210 ± 50 nM
- Ki (ShHTL7 T190F/C194F [6]): 150 ± 40 nM
- decrease in rac-GR24 binding affinity, T190F/C194F vs ShHTL7 (ShHTL7 T190F/C194F [7]): twofold decrease
- ligand-induced ShD14-ShMAX2 interaction (ShD14–ShMAX2 interaction): rac-GR24-dependent ShD14–ShMAX2 interaction was also observed
- hydrolytic activity of ShHTL7 toward SL (ShHTL7 [8]): able to hydrolyze
- hydrolytic activity of ShHTL1 toward SL (ShHTL1 [9]): no hydrolytic activity
- ligand-dependent ShMAX2-ShD14 interaction (ShMAX2 and ShD14): direct interaction was detected between ShMAX2 and ShD14 in a rac-GR24-dependent manner
- binding of rac-GR24 to ShHTL3 (ShHTL3 [10]): can bind to KAR1 but not rac-GR24
- IC50 (ShHTL7 L124F/T190F/C194F): 13.9 ± 3.41 µM
- Ki (ShHTL7 L124F/T190F/C194F): 11.8 ± 3.43 µM

SMILES: CC1=CC(OC=C2C(=O)OC3C4=C(CCCC4(C)C)CC23)OC1=O (stereo not drawn) [5DS, 5-deoxystrigol]
- hydrolytic activity of ShHTL4 toward SL (ShHTL4): able to hydrolyze
- hydrolytic activity of ShD14 toward SL (ShD14 [2]): able to hydrolyze
- hydrolytic activity of ShHTL7 toward SL (ShHTL7 [8]): able to hydrolyze
- hydrolytic activity of ShHTL1 toward SL (ShHTL1 [9]): weak 5DS hydrolytic activity

SMILES: CC1=CC(=O)CC(C)(C)[C@@]1(O)/C=C/C(C)=C\C(=O)O [ABA, abscisic acid]
- binding affinities for ABA, PYR1-PP2C complex [11]: nanomolar range
- Kd ([…] 1 (PYR1)): 97 µM

SMILES: CC1=C[C@H](O/C=C2/C(=O)O[C@@H]3c4ccccc4C[C@H]23)OC1=O [GR24^ent−5DS]
- hydrolysis of GR24^ent−5DS by AtHTL (AtHTL): able to hydrolyze GR24^ent−5DS

SMILES: CCOC(=O)c1ccccc1-c1c2ccc(=O)cc-2oc2cc(OC3C=C(C)C(=O)O3)ccc12 (stereo not drawn) [YLG, Yoshimulactone Green]
- hydrolytic activity of ShD14 toward YLG, previous study (ShD14 [12]): no hydrolytic activity toward YLG
- hydrolysis of YLG by ShD14 (ShD14 [13]): not YLG

SMILES: CCOC(=O)c1ccccc1-c1c2ccc(=O)cc-2oc2cc(OC3C=CC(=O)O3)ccc12 (stereo not drawn) [dYLG, desmethyl-YLG]
- hydrolysis of dYLG by AtHTL (AtHTL): hydrolyze the synthesized desmethyl-YLG (dYLG)
